Literature values as cited in US20050112339A1, “Antimicrobial protection for plastic structures” (priority 2003, published 2005).

Conditions: in water
For `[Na+].[O-][n+]1ccccc1[S-]` [sodium pyrithione], the water solubility is listed as 450 grams per liter. For zinc pyrithione, the water solubility is given as 6 milligrams per liter. For `On1ccccc1=S.On1ccccc1=S.[Cu]` [copper pyrithione], the water solubility is given as 0.1 milligrams per liter.
